Reference: publication PMC9977574 (Gut, 2022)

Target: FKBP8 (FK506 binding protein 8) (Homo sapiens, UniProt Q14318)
Assay: microscale thermophoresis competition with recombinant proteins

FKBP8 (FK506 binding protein 8), sequence (Q14318 whole entry): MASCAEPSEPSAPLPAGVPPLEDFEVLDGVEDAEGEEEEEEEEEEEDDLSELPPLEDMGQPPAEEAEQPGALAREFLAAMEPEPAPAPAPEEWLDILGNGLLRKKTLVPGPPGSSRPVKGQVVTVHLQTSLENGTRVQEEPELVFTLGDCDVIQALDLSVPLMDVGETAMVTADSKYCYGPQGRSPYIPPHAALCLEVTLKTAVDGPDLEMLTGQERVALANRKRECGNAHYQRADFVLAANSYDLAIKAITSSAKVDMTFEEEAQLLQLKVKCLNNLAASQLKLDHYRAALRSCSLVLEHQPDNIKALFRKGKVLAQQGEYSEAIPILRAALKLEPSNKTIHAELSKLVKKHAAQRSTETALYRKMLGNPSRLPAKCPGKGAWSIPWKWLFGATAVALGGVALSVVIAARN
FKBP8 (FK506 binding protein 8), sequence (Q15746 whole entry partner): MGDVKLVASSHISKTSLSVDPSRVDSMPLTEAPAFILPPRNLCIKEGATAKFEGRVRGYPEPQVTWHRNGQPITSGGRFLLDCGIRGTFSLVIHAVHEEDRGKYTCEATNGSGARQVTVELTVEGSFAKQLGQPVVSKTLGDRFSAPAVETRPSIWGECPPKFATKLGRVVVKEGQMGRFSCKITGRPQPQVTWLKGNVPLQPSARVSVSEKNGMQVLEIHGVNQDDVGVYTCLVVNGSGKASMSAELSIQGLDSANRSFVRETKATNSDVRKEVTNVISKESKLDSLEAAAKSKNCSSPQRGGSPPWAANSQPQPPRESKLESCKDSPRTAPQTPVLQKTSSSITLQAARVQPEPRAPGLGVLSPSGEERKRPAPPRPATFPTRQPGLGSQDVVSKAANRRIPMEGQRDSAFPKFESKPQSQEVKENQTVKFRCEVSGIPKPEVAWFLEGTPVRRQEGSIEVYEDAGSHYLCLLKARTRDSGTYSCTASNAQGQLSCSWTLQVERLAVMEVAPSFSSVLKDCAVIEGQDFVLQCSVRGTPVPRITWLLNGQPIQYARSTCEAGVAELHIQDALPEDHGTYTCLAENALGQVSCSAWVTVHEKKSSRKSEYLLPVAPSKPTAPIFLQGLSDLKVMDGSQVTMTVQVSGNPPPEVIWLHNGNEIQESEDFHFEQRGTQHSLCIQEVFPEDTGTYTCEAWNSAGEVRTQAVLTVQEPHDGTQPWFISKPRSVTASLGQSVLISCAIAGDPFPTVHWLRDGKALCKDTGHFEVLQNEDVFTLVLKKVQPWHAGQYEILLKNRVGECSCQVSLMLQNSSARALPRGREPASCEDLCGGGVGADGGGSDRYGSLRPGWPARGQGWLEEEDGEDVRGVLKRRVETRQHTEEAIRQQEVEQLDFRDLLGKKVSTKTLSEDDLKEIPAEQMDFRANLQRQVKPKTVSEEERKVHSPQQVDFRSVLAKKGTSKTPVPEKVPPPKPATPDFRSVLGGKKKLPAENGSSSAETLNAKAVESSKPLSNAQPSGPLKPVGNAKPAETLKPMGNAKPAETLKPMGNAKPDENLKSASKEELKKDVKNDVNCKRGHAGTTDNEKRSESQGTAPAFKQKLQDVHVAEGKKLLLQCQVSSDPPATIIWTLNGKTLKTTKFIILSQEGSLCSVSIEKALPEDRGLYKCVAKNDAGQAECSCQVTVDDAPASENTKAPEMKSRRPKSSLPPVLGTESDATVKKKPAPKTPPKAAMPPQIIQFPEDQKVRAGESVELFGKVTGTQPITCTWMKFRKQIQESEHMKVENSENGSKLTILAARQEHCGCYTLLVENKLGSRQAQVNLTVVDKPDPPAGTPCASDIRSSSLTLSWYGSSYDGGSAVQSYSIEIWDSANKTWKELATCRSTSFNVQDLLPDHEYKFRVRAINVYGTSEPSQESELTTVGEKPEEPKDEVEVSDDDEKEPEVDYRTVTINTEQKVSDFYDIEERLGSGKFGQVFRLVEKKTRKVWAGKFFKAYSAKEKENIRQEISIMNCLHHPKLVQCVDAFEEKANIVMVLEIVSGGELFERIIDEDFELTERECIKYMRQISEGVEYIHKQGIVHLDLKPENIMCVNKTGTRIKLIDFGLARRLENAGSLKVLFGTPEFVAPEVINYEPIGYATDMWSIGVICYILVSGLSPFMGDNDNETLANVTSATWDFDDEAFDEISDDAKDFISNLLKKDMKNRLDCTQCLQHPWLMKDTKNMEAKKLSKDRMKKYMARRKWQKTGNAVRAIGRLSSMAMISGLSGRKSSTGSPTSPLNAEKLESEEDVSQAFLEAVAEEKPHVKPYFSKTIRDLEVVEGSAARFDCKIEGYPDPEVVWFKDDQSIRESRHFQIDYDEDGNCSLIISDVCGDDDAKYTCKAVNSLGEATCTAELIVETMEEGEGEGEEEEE

## C=CC[C@@H]1/C=C(\C)C[C@H](C)C[C@H](OC)[C@H]2O[C@@](O)(C(=O)C(=O)N3CCCC[C@H]3C(=O)O[C@H](/C(C)=C/[C@@H]3CC[C@@H](O)[C@H](OC)C3)[C@H](C)[C@@H](O)CC1=O)[C@H](C)C[C@@H]2OC [tacrolimus]
  IC50: 68.7 ± 13.3 µM
